Experimental data: patent US20150328245A1, “Agents for Eliminating Tumour-Initiating Cells” (priority 2012, published 2015)
Where “and” joins values, the source holds several entries; their conditions need not be identical. Equal values may be shown once. Read-outs that look alike come from different tables or passages of the source.

Legend:
DU145 [1] = assay: In vitro colorimetric cell death assay (MTT); type: cell-based
Method: (§1) It's an in vitro colorimetric assay for assessing cell viability where the cells are grown in Two-dimensional surface.
(§2) An exemplary procedure for the assay follows. Cancer cells and normal cells were plated in a 96 well plate as per predetermined plating efficiency. The plate was incubated for 24 hours in a 5% CO2 atmosphere at 37 degrees Celsius, a range of concentrations of the compounds I-1, I-2 and I-3 as well as cisplatin (known chemotherapeutic agents) were added to the separate wells, the plate was incubated further for 48 hours in a 5% CO2 atmosphere, the plate was centrifuged twice at 3000 rpm for 3 minutes, the supernatant fluid was discarded, 100 uL of 0.5 mg/mL MTT solution was added and the plate was incubated for 4 hours in a 5% CO2 atmosphere at 37 degrees Celsius. The plate was then centrifuged twice at 3000 rpm for 3 minutes, supernatant, was aspirated very carefully, 200 uL DMSO was added to each well to solubilize MTT crystals and mixed well by shaking the plate, the plate was incubated for 10 minutes in a 5% CO2 atmosphere at 37 degrees Celsius, the plate placed on the shaker of an ELISA plate reader and the absorbance at 570 nm was measured, then the percentage of viable cells remaining was calculated by first subtracting the background absorbance then comparing to the absorbance of a non-drug-treated cell sample, and the results were plotted on a graph to determine the IC50 for the compounds and cisplatin.

[2] = system: MCF10A (normal breast cell line); assay: In vitro colorimetric cell death assay (MTT); type: cell-based; conditions: 48 hours
Method: as §1, §2

LNCaP [3] = assay: In vitro colorimetric cell death assay (MTT); type: cell-based; conditions: 48 hours
Method: as §1, §2

MCF-7 [4] = assay: In vitro colorimetric cell death assay (MTT); type: cell-based; conditions: MCF-7, MTT, 48 hours
Method: as §1, §2

MDAMB231 [5] = assay: In vitro colorimetric cell death assay (MTT); type: cell-based; conditions: 48 hours
Method: as §1, §2

L 929 = assay: In vitro colorimetric cell death assay (MTT); type: cell-based
Method: as §1, §2

PC3 [6] = assay: In vitro colorimetric cell death assay (MTT); type: cell-based; conditions: 48 hours
Method: as §1, §2

T47D [7] = assay: In vitro colorimetric cell death assay (MTT); type: cell-based; conditions: 48 hours
Method: as §1, §2

DU145 [8] = assay: In vitro soft agar colony forming growth assay; type: cell-based; conditions: one week
Method: (§3) The Soft Agar Assay for Colony Formation is considered the most stringent assay for detecting malignant transformation of cells. In this assay the cells are cultured in medium with low percentage of agar.
(§4) An exemplary procedure for the assay follows.

L929 = assay: In vitro soft agar colony forming growth assay; type: cell-based
Method: as §3, §4

LNCaP [9] = assay: In vitro soft agar colony forming growth assay; type: cell-based; conditions: one week
Method: as §3, §4

MCF-7 [10] = assay: In vitro soft agar colony forming growth assay; type: cell-based; conditions: MCF-7, soft agar, one week
Method: as §3, §4

HeLa = assay: In vitro soft agar colony forming growth assay; type: cell-based
Method: as §3, §4

PC3 [11] = assay: In vitro soft agar colony forming growth assay; type: cell-based; conditions: one week
Method: as §3, §4

T47D [12] = assay: In vitro soft agar colony forming growth assay; type: cell-based; conditions: one week
Method: as §3, §4

breast cancer cells T47D = assay: In vitro 3D primary sphere forming stem cell assay; type: cell-based
Method: (§5) This assay measures the ability of cancer stem cells to form spheres in a serum free media where the spheres are in a suspended form. Through this assay we evaluated the potency of the compounds of the invention to kill cancer stem cells in comparison with the known chemotherapeutic agent Cisplatin.
(§6) An exemplary procedure for the assay follows. Cells were grown in three dimensions on a plastic substrate, harvested in suspension in serum-free media, then the cells in the sample were trypsinized and a single cell suspension was formed by passing through a cell strainer. The cells were diluted according to the predetermined plating efficiency for the cell line being studied by suspending the cells in stem cell culture medium. 100 uL of this suspension was added into each well of a 96 well suspension plate, and the plate was incubated at 37 degrees Celsius in 5% CO2 atmosphere for 24 hours, then 2 uL of appropriate concentrations of the compounds of the invention and cisplatin were added into each respective well along with 100 uL of stem cell culture medium, and the plates were incubated at 37 degrees Celsius under 5% CO2 atmosphere for 72 hours. 2.5 uL of the compounds of the invention and cisplatin were added to each respective well along with 50 uL of stem cell culture medium and then the plates were incubated at 37 degrees Celsius under 5% CO2 atmosphere for 72 hours. 3 uL of appropriate concentrations of the compounds of the invention and cisplatin were added to each respective well along with 50 uL of stem cell culture medium and then the plates were incubated at 37 degrees Celsius under 5% CO2 atmosphere for 72 hours, then the spheres formed were observed under a microscope then counted and scored by size.
(§7) Results of the in vitro 3D sphere forming stem cell assay are set forth in a tabular manner. The number in each box is the total number of spheres formed in the presence of either cisplatin or compound I-2 or compound I-3 at each drug concentration. GC refers to a growth control performed in the absence of drug or solvent (DMSO). GCD refers to a growth control performed in the absence of drug, but in the presence of DMSO.

[13] = system: prostate cancer cells DU145; assay: In vitro 3D primary sphere forming stem cell assay; type: cell-based
Method: as §5, §6, §7

[14] = system: breast cancer cells MCF-7; assay: In vitro 3D primary sphere forming stem cell assay; type: cell-based
Method: as §5, §6, §7

[15] = system: breast cancer cells MDA MB 231; assay: In vitro 3D primary sphere forming stem cell assay; type: cell-based
Method: as §5, §6, §7

[16] = system: prostate cancer cells LNCaP; assay: In vitro 3D primary sphere forming stem cell assay; type: cell-based
Method: as §5, §6, §7

[17] = system: prostate cancer cells PC3; assay: In vitro 3D primary sphere forming stem cell assay; type: cell-based
Method: as §5, §6, §7

cancer cell lines = assay: In vitro colorimetric cell death assay (MTT), overall statement; type: cell-based
Method: as §1, §2

[18] = In vivo maximum tolerated dose assay for compound I-1; parameters: species or system nude mice
Method: In vivo maximum tolerated dose (MTD) toxicity assay was carried out to evaluate the highest dose of a pharmaceutical treatment that will produce the desired effect without unacceptable toxicity. The purpose of administering MTD is to determine whether long-term exposure to a compound might lead to unacceptable adverse health effects in a subject, when the level of exposure is not sufficient to cause premature mortality due to short-term toxic effects.
An exemplary procedure for the in vivo maximum tolerated dose toxicity assay follows. A statistically appropriate number of male and female nude mice were injected with a single dose of either 30 mg/kg, 10 mg/kg, 5 mg/kg, and 2.5 mg/kg of a compound I-1 interperitoneally (i.p.) on day zero. The number of mice surviving from each dose group after the first through fourth days was recorded, and the Maximum Tolerated Dose (“MTD”; e.g. the dose at which 100% of the animals survived after 4 days) was determined.

MDAMB231 [19] = assay: In vitro soft agar colony forming growth assay; type: cell-based; conditions: Homo sapiens, MDA-MB-231, 168 h
Method: as §3, §4

Structure (SMILES): N.N.[Cl][Pt][Cl] [Cisplatin, cisplatin, reference compound]
- IC50 (DU145 [1]; DU145, MTT, 48 hours, read-out: IC 50): 56.2 µM
- IC50 ([2]; read-out: IC 50): 36.3 µM
- IC50 (LNCaP [3]): 64.6 µM
- IC50 (MCF-7 [4]): 4.75 µM
- IC50 (MDAMB231 [5]): 82.3 µM
- IC50 (L 929; L 929, MTT, 48 hours, read-out: IC 50): 46.7 µM
- IC50 (PC3 [6]): 40.1 µM
- IC50 (T47D [7]): 51.3 µM
- IC50 (DU145 [8]): 56.2 µM
- IC50 (L929; L929, soft agar, one week, read-out: IC 50): 8.7 µM
- IC50 (LNCaP [9]): 64.6 µM
- IC50 (MCF-7 [10]): 37.1 µM
- IC50 (HeLa; soft agar, one week, read-out: IC 50): 39.4 µM
- IC50 (PC3 [11]): 40.1 µM
- IC50 (T47D [12]): 51.3 µM
- # of 3D Primary Spheres Formed of Cells T47D (±SD) (breast cancer cells T47D; final conc. 0.125 μM): 105(±10)
- # of 3D Primary Spheres Formed of Cells T47D (±SD) (breast cancer cells T47D; final conc. 1.25 μM): 100(±7)
- # of 3D Primary Spheres Formed of Cells T47D (±SD) (breast cancer cells T47D; final conc. 12.5 μM): 76(±25)
- # of 3D Primary Spheres Formed of Cells T47D (±SD) (breast cancer cells T47D; final conc. 125 μM): 51(±5)
- # of 3D Primary Spheres Formed of Cells T47D (±SD) (breast cancer cells T47D; final conc. 1250 μM): 0(±0)
- # of 3D Primary Spheres Formed of Cells DU145 (±SD) ([13]; final conc. 0.125 μM): 84(±4)
- # of 3D Primary Spheres Formed of Cells DU145 (±SD) ([13]; final conc. 1.25 μM): 70(±7)
- # of 3D Primary Spheres Formed of Cells DU145 (±SD) ([13]; final conc. 12.5 μM): 48(±6)
- # of 3D Primary Spheres Formed of Cells DU145 (±SD) ([13]; final conc. 125 μM): 35(±4)
- # of 3D Primary Spheres Formed of Cells DU145 (±SD) ([13]; final conc. 1250 μM): 11(±3)
- # of 3D Primary Spheres Formed of Cells MCF-7 (±SD) ([14]; final conc. 0.125 μM): 76(±5)
- # of 3D Primary Spheres Formed of Cells MCF-7 (±SD) ([14]; final conc. 1.25 μM): 77(±5)
- # of 3D Primary Spheres Formed of Cells MCF-7 (±SD) ([14]; final conc. 12.5 μM): 68(±7)
- # of 3D Primary Spheres Formed of Cells MCF-7 (±SD) ([14]; final conc. 125 μM): 61(±7)
- # of 3D Primary Spheres Formed of Cells MCF-7 (±SD) ([14]; final conc. 1250 μM): 37(±8)
- # of 3D Primary Spheres Formed of Cells MDA MB231 (±SD) ([15]; final conc. 0.125 μM): 124(±7) and 87(±5)
- # of 3D Primary Spheres Formed of Cells MDA MB231 (±SD) ([15]; final conc. 1.25 μM): 113(±11) and 79(±2)
- # of 3D Primary Spheres Formed of Cells MDA MB231 (±SD) ([15]; final conc. 12.5 μM): 112(±18) and 78(±5)
- # of 3D Primary Spheres Formed of Cells LNCaP (±SD) ([16]; final conc. 0.125 μM): 142(±12)
- # of 3D Primary Spheres Formed of Cells LNCaP (±SD) ([16]; final conc. 1.25 μM): 144(±8)
- # of 3D Primary Spheres Formed of Cells LNCaP (±SD) ([16]; final conc. 12.5 μM): 108(±10)
- # of 3D Primary Spheres Formed of Cells LNCaP (±SD) ([16]; final conc. 125 μM): 54(±7)
- # of 3D Primary Spheres Formed of Cells LNCaP (±SD) ([16]; final conc. 1250 μM): 9(±2)
- # of 3D Primary Spheres Formed of Cells PC3 (±SD) ([17]; final conc. 0.125 μM): 125(±7)
- # of 3D Primary Spheres Formed of Cells PC3 (±SD) ([17]; final conc. 1.25 μM): 109(±12)
- # of 3D Primary Spheres Formed of Cells PC3 (±SD) ([17]; final conc. 12.5 μM): 80(±6)
- # of 3D Primary Spheres Formed of Cells PC3 (±SD) ([17]; final conc. 125 μM): 67(±5)
- # of 3D Primary Spheres Formed of Cells PC3 (±SD) ([17]; final conc. 1250 μM): 55(±5)

Structure (SMILES): COc1cc2c(OC3OCC(OC)C(OC)C3OC(C)=O)c3c(c(-c4ccc5c(c4)OCO5)c2cc1OC)C(=O)OC3 (stereo not drawn) [I-1]
- anticancer activity in cancer cell lines as compared to cisplatin (cancer cell lines): high anticancer activity
- Number of mice surviving after injection ([18]; 2.5 mg/kg single dose i.p., day 0): 6/6
- Number of mice surviving after injection ([18]; 2.5 mg/kg single dose i.p., day 1): 6/6
- Number of mice surviving after injection ([18]; 2.5 mg/kg single dose i.p., day 2): 6/6
- Number of mice surviving after injection ([18]; 2.5 mg/kg single dose i.p., day 3): 6/6
- Number of mice surviving after injection ([18]; 2.5 mg/kg single dose i.p., day 4): 6/6
- Number of mice surviving after injection ([18]; 5 mg/kg single dose i.p., day 0): 6/6
- Number of mice surviving after injection ([18]; 5 mg/kg single dose i.p., day 1): 6/6
- Number of mice surviving after injection ([18]; 5 mg/kg single dose i.p., day 2): 6/6
- Number of mice surviving after injection ([18]; 5 mg/kg single dose i.p., day 3): 6/6
- Number of mice surviving after injection ([18]; 5 mg/kg single dose i.p., day 4): 6/6
- Number of mice surviving after injection ([18]; 10 mg/kg single dose i.p., day 0): 6/6
- Number of mice surviving after injection ([18]; 10 mg/kg single dose i.p., day 1): 4/6
- Number of mice surviving after injection ([18]; 10 mg/kg single dose i.p., day 2): 4/6
- Number of mice surviving after injection ([18]; 10 mg/kg single dose i.p., day 3): 4/6
- Number of mice surviving after injection ([18]; 10 mg/kg single dose i.p., day 4): 4/6
- Number of mice surviving after injection ([18]; 30 mg/kg single dose i.p., day 0): 4/6
- Number of mice surviving after injection ([18]; 30 mg/kg single dose i.p., day 1): 4/6
- Number of mice surviving after injection ([18]; 30 mg/kg single dose i.p., day 2): 0/6
- Number of mice surviving after injection ([18]; 30 mg/kg single dose i.p., day 3): 0/6
- Number of mice surviving after injection ([18]; 30 mg/kg single dose i.p., day 4): 0/6
- MTD ([18]; single dose i.p., nude mice): 5-10 mg/kg body weight
- dose that resulted in 100% survival of mice after 4 days ([18]; single dose i.p., nude mice): about 5 mg/kg
- IC50 (DU145 [1]; Homo sapiens, DU-145, 48 h): 37.6 µM
- IC50 [2]: No activity
- IC50 (L 929; Mus musculus, L929, 48 h): 1.23 µM
- IC50 (L929; Mus musculus, L929, 168 h): 3.63 µM
- IC50 (HeLa; Homo sapiens, 168 h): 5.12 µM
- IC50 (MDAMB231 [19]): 5.88 µM
